Data as given in patent publication US20240285501A1, “HAIR GROWTH AGENT” (ADJUVANT HOLDINGS CO., LTD., priority 2021, published 2024).

How the values were obtained:
[1] = system: VEGF gene expression in human dermal papilla cells; test: Evaluation of human dermal papilla cell VEGF gene expression (real-time PCR); assay type: cell-based; conditions: 72 hours, relative to negative control group, GAPDH internal standard, FIG. 1
Description: The VEGF gene is expressed in dermal papilla cells, and contributes to expression of such effects as increase in hair shaft diameter and improving maximum hair shaft length and improving hair shaft elongation rate and hair shaft growth promotion at head hair, beard, eyebrows, and/or eyelashes. Human dermal papilla cells were therefore used, and evaluation was carried out with respect to increase in VEGF gene expression for the respective components.
Human dermal papilla cells (Catalog No. CA60205a; derived from person; Toyobo Co., Ltd. (Japan)) were purchased, testing and evaluation being carried out with maintenance and culture of cells being performed as described in the protocol.
As drugs for testing, drug solutions of the following respective concentrations (final concentrations) were prepared and used. • Comparative Example 1: 100 μM adenosine • Working Example 1: 0.3125 μM phytosphingosine • Working Example 2: 1.25 μM phytosphingosine • Working Example 3: Liquid mixture of 100 μM adenosine and 1.25 μM phytosphingosine
A 24-well plate was seeded with human dermal papilla cells so as to obtain 6×10^3 thereof per well. […] The GAPDH gene was used as an internal standard, the amount of VEGF gene expression being calculated relative to the negative control group. […]
300 μL of lysis buffer RL was added thereto per well, and the cells were lysed by pipetting. […] Concentration of the recovered RNA was measured using a NanoDrop Lite (Catalog No. ND-LITE; Thermo Fisher Scientific K.K.), and this was stored at −80° C. until the following cDNA creation procedure.
A FastGene scriptase II cDNA synthesis 5× Ready Mix (Catalog No. NE-LS64; Nippon Genetics Co., Ltd. (Japan)) was used to synthesize cDNA. Dilution with RNase Free Water was carried out so as to cause concentration of total RNA produced in a new tube to be […], 4 μL of FastGene scriptase II cDNA synthesis 5× Ready Mix was added to 16 μL of this sample solution, and this was agitated by vortexing. […]

[2] = system: vascular endothelial growth factor (VEGF) expression in human dermal papilla cells; conditions: cited from earlier work

Question: Which “change in amount of expression of the VEGF gene” value (from here on “change in amount”) [1] does the source give for `CCCCCCCCCCCCCC[C@@H](O)[C@@H](O)[C@@H](N)CO` [Working Example 1, phytosphingosine] here?
Answer: increase in dosage-dependent fashion in the amount of expression of the VEGF gene as compared with the control group

Question: Which “change in amount” value [1] does the source give for `CCCCCCCCCCCCCC[C@@H](O)[C@@H](O)[C@@H](N)CO` [Working Example 2, phytosphingosine] here?
Answer: increase in dosage-dependent fashion in the amount of expression of the VEGF gene as compared with the control group

Question: With `Nc1ncnc2c1ncn2[C@@H]1O[C@H](CO)[C@@H](O)[C@H]1O` [adenosine] as the molecule, how does the “expression of vascular endothelial growth factor (VEGF)” value [2] read?
Answer: promotes expression of vascular endothelial growth factor (VEGF)

Question: Which “change in amount” value [1] does the source give for `CCCCCCCCCCCCCC[C@@H](O)[C@@H](O)[C@@H](N)CO` [phytosphingosine] here?
Answer: significantly greater than that which was produced as a result of action of adenosine
